tested on: Mouse Ear Edema; experiment: Topical Mouse Ear Assay (Mouse Ear Edema); format: in vivo; conditions: Table 1, Dosage 300 μg, irritant (PMA or AA) not given
Protocol: (§1) The rat foot edema assay CFE and the topical mouse ear assay were used to evaluate the anti-inflammatory activity of the novel compounds of the present invention. These are established assay for screening non steroridal anti-inflammatory agents.
The right ears of mice (5 mice per group) were treated topically with either 5μ PMA ([…]) or 1000μ AA alone or with the test compound in 25μ of vehicle. The vehicle was water/pyridine/acetone (1:2:97). A control group of mice received the vehicle only. The mice were allowed food and water ad libitum during the treatment period; 2 hours for AA and 4 hours for PMA. The mice were sacrificed by cervical dislocation and a 6 mm diameter disc of tissue punched from both the treated and untreated ears. The tissue biopsies were immediately weighed and the weight increase of the treated ear relative to the weight of the untreated ear determined.
Results: The effect of representative compounds on Mouse Ear Edema

Compound	Edema (% inhibition)
COc1ccc(O)c(CSc2nccn2C)c1 [drawing 5]	45%
COc1ccc(O)c(CSc2ncc(C)n2C)c1 [drawing 6]	65%
COc1ccc(O)c(CSc2nc3ccccc3[nH]2)c1 [drawing 7]	76%
COc1ccc(O)c(CSc2ncccn2)c1 [drawing 8]	32%

tested on: Rat Foot Edema; experiment: Rat Foot Edema Assay (CFE); format: in vivo; conditions: Table 2a, Dosage (μg) 30
Protocol: as §1
Representative compounds of formula (I) or (II) were tested according to the well-established procedures of rat foot edema assay published in 1962 by C. A. Winter, E. A. Risley and G. W. Nuss, Proc Soc Exp Biol Med. III, 544 (1962).
Results: The effect of representative compounds on Rat Foot Edema

Compound	Edema (% inhibition)
COc1ccc(O)c(CSc2nc(C)cn2C)c1	77%
COc1ccc(O)c(CSc2nc(C)c[nH]2)c1	74%
COc1ccc(O)c(CSc2nccn2C)c1 [drawing 10]	74%
COc1ccc(O)c(CSc2ncc(C)n2C)c1 [drawing 11]	54%
COc1ccc(O)c(CSc2nc3ccccc3[nH]2)c1 [drawing 14]	21%
COc1ccc(O)c(CSc2ncccn2)c1 [drawing 15]	3%

same assay, conditions: Table 2b, Dosage (mpk) 30

Compound	% Inhibition
Cc1cnc(SCc2cc3c(cc2O)CCCO3)n1C	42%

Reference: patent US4734421A, “Anti-inflammatory substituted 2-benzyl-mercapto-imidazole and pyrimidine derivatives compositions and method of use therefor” (Merck & Co., Inc., priority 1986, dated 1988)
